From patent publication US7531500B2, “Preventing airway mucus production by administration of EGF-R antagonists” (The Regents of the University of California, priority 1998, dated 2009)

Columns and labels:
NCI-H292 cells [1] = experiment: In situ hybridization for MUC5AC gene in NCI-H292 cells (Example 2); format: cell-based, human; conditions: within 12 h
Protocol: Cell Culture. NCI-H292 cells, a human pulmonary mucoepidermoid carcinoma cell line, were grown in RPMI 1640 medium containing 10% fetal bovine serum, penicillin (100 U/ml), streptomycin (100 μg/ml) and Hepes (25 mM) at 37° C. in a humidified 5% CO2, water-jacketed incubator. Either 6-well culture plates or 8-chamber slides were used to culture the cells. When confluent, cells were incubated for 1 h with neutrophils (10^6 cells/ml) alone, TNFα alone (recombinant human TNFα, 20 ng/ml, Genzyme, Cambridge, Mass.), IL-8 (recombinant human IL-8, 10^−8 M, Genzyme) alone, fMLP (10^−8 M, Sigma, St. Louis, Mo.) alone, TNFα plus neutrophils, IL-8 plus neutrophils, fMLP plus neutrophils, hydrogen peroxide (H2O2, 200 μM), cigarette smoke solution or TGFα (recombinant human TGFα, 0.1-25 ng/ml, Calbiochem, San Diego, Calif.). The cells were then washed and incubated with fresh medium alone. Experiments were terminated at preselected times (for mRNA, 6 h and 12 h; for protein, 24 h). As controls, cells were incubated with medium alone for same time periods. […] NCI-H292 cells were incubated for 1 h with either neutrophils that had been incubated with TNFα (20 ng/ml) for 1 h and then washed with sterile PBS to avoid contamination with the supernatant (e.g., molecules released from neutrophils), or the NCI-H292 cells were incubated with supernatant only. […]

EGFR = EGFR (Homo sapiens, UniProt P00533); experiment: Immunoprecipitation of EGF-R and immunoblotting for tyrosine phosphorylation in NCI-H292 cells; format: cell-based; set-up: These cells express EGF-R constitutively; endogenous in cells; host or cells: NCI-H292 (human pulmonary mucoepidermoid carcinoma); conditions: within 15 min of stimulus
EGFR, sequence (P00533 25-1210): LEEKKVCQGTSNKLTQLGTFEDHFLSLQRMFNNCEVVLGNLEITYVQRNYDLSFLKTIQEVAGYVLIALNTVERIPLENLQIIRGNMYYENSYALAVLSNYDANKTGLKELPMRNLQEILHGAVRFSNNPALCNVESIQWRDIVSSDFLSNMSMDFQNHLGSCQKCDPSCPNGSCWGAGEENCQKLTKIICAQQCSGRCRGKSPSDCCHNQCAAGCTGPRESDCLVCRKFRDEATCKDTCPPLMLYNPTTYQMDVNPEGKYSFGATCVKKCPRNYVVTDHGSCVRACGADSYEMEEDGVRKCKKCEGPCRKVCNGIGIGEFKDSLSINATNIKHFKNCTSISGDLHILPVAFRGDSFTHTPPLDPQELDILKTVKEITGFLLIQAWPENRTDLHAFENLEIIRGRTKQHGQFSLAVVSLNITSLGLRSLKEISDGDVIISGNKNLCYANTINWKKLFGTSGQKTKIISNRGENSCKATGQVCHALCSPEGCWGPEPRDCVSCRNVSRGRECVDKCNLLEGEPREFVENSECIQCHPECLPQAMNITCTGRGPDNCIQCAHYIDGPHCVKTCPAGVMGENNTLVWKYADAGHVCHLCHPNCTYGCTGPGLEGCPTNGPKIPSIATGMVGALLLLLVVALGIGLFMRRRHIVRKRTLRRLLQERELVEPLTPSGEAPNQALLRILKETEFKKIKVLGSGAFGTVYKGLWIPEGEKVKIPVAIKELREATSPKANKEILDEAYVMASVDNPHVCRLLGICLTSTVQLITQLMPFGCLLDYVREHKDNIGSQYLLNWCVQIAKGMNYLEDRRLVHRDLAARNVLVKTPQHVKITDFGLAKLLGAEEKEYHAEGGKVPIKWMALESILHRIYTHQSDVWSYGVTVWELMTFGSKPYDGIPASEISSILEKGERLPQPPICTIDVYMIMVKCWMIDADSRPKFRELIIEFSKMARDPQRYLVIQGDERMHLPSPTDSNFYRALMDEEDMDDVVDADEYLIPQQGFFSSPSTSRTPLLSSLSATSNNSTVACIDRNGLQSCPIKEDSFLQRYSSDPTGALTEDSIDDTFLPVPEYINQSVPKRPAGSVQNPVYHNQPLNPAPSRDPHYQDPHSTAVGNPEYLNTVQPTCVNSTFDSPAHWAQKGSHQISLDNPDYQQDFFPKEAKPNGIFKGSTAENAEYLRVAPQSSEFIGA
Protocol: Immunoprecipitation for EGF-R Protein and Immunoblotting for Tyrosine Phosphorylation. Cells were serum-starved for 24 h and then stimulated with TGFα, H2O2, or the supernatant of activated neutrophils for 15 min. After stimulation, cells were lysed and incubated for 30 min in an orbital shaker at 4° C. To remove insoluble material, cell lysates were centrifuged at 14,000 rpm for 5 min at 4° C. Aliquots of supernatants containing equal amounts of protein were immunoprecipitated with anti-EGF receptor antibody (polyclonal, Ab4, Calbiochem) and 20 μl of protein A-agarose (Santa Cruz) for 2 h at 4° C. Precipitates were washed three times with 0.5 ml of lysis buffer, suspended in SDS sample buffer, and boiled for 5 min. Proteins were separated by SDS-PAGE in 8.0% acrylamide gel. The resulting gel was equilibrated in the transfer buffer: 25 mM Tris-HCl, 192 mM glycine, 20% (vol/vol) methanol, pH 8.3. The proteins were then transferred electrophoretically to nitrocellulose membranes (0.22 μm), blocked with 5% fat-free skimmed milk in PBS containing 0.05% Tween 20 overnight and then incubated with monoclonal anti-phosphotyrosine antibody (1:100,Santa Cruz) for 1 h. Bound antibody was visualized according to a standard protocol for the avidin-biotin-alkaline phosphatase complex method (ABC kit, Vector Laboratories).

NCI-H292 cells [2] = experiment: Immunoassay of MUC5AC protein in NCI-H292 cells (Example 2); format: cell-based, human
Protocol: Cell Culture. NCI-H292 cells, a human pulmonary mucoepidermoid carcinoma cell line, were grown in RPMI 1640 medium containing 10% fetal bovine serum, penicillin (100 U/ml), streptomycin (100 μg/ml) and Hepes (25 mM) at 37° C. in a humidified 5% CO2, water-jacketed incubator. Either 6-well culture plates or 8-chamber slides were used to culture the cells. […] The cells were then washed and incubated with fresh medium alone. Experiments were terminated at preselected times (for mRNA, 6 h and 12 h; for protein, 24 h). As controls, cells were incubated with medium alone for same time periods. […] In inhibition studies with blocking antibodies to EGF-R ligands, the supernatants were pretreated with anti-TGFα antibody (Calbiochem) or anti-EGF antibody for 30 min and then added to NCI-H292 cells. The role of oxygen free radicals was examined using scavengers of oxygen free radical DMSO (1%, Sigma), 1,3-dimethyl-2-thiourea (DMTU, 50 mM, Sigma), or superoxide dismutase (SOD, 300 U/ml, Sigma).
Preparation of Cigarette Smoke Solution. Research cigarettes (code2R1, produced for the University of Kentucky Tobacco and Health Research Foundation) were used in the study. Cigarette smoke solution was prepared as previously described (Dusser et al. (1989) J. Clin. Invest. 84:900-906). In brief, cigarette smoke was withdrawn into a polypropylene syringe (35 ml) at a rate of one puff/min (10 times) and bubbled slowly into 20 ml of RPM11640 containing 50 mM Hepes buffer. The smoke solution was then titrated to pH 7,4 and used immediately after preparation.
Immunoassay of MUC5AC Protein. MUC5AC protein was measured as described above. In brief, cell lysates were prepared with PBS at multiple dilutions, and 50 μl of each sample was incubated with bicarbonate-carbonate buffer (50 μl) at 40° C. in a 96-well plate (Maxisorp Nunc, Fisher Scientific, Santa Clara, Calif.), until dry. Plates were washed three times with PBS and blocked with 2% BSA (fraction V, Sigma) for 1 h at room temperature. Plates were again washed three times with PBS and then incubated with 50 μl of mouse monoclonal MUC5AC antibody (1:100) that was diluted with PBS containing 0.05% Tween 20. After 1 h, the wells were washed three times with PBS, and 100 μl horseradish peroxidase-goat anti-mouse IgG conjugate (1:10,000, Sigma) was dispensed into each well. After 1 h, plates were washed three times with PBS. Color reaction was developed with TMB peroxidase solution (Kirkegaard & Perry Laboratories, Gaithersburg, Md.) and stopped with 2N H2SO4. Absorbance was read at 450 nm.

NCI-H292 cells [3] = experiment: Northern analysis for MUC5 gene expression in NCI-H292 cells; format: cell-based, human; conditions: EGF or TGFα 25 ng/ml, TNFα 20 ng/ml; 12 h, 24 h
Protocol: (§1) Cell culture. A human pulmonary mucoepidermoid carcinoma cell line, NCI-H292 cells, were grown in RPMI11640 medium containing 10% fetal bovine serum, penicillin (100 U/ml), streptomycin (100 μg/ml) at 37° C. in a humidified 5% CO2 water-jacketed incubator. […] In inhibition studies with an EGF-R tyrosine kinase inhibitor, BIBX1522 (10 μg/ml, generously provided by Boehringer Ingelheim Inc., Ingelheim, Germany), cells were pretreated with BIBX1522 30 min before adding growth factors. After incubation, cells grown in a T-75 flask were used for total RNA extraction or protein extraction, and 8-chamber slides were used for Alcian blue/PAS-staining to visualize mucins.

pathogen-free rats = experiment: Goblet cell production in pathogen-free rats after tracheal instillation of TNFα and EGF-R ligands; format: in vivo, rat; conditions: intratracheal 600 ng, alone
Protocol: Healthy rats. Rats were anesthetized with methohexital sodium (Brevital sodium, 50 mg/kg, i.p.; Eli Lilly & Co., Indianapolis, Ind.) and allowed to breathe spontaneously. […] In each study, sterile PBS (100 μl) was instilled into the trachea as control. […] Rats were pretreated with BIBX1522 (3, 10 or 30 mg/kg, i.p.), 1 h before and 24 h after instillation of TGFα. The trachea and lungs were removed for examination 48 h after the instillation of TGFα.
Tissue preparation. At preselected times during anesthesia, the systemic circulation was perfused with 1% paraformaldehyde in DEPC-treated PBS at a pressure of 120 mmHg. The trachea was then removed and placed in 4% paraformaldehyde for 24 h. After fixation, trachea and lungs were embedded in either JB-4 plus monomer solution A for cell analysis or O.C.T. compound (Sakura Finetek U.S.A., Inc., Torrance, Calif.) for immunohistochemistry and in situ hybridization. The embedded tissues were cut as cross sections ([…] thick) and placed on slides.
Cell analysis. We counted the total number of epithelial cells by counting epithelial cell nuclei over 2 mm of the basal lamina with an oil immersion objective lens (×1000 magnification). The linear length of the basal lamina under each analyzed region of epithelium was determined by tracing the contour of the digitized image of the basal lamina. After instillation of stimuli, “developing” goblet cells form. These cells have Alcian blue/PAS-positive granules, but the size of granules is small, and the number of cytoplasmic granules is few. We call these “developing” goblet cells “pre-goblet cells”, a stage before cells become mature goblet cells. Goblet cells are tall, cuboidal, goblet to low columnar in shape, with abundant Alcian blue/PAS-stained granules filling most of the cytoplasm between the nucleus and the luminal surface. Pre-goblet cells are defined as cells with smaller mucus-stained areas (<1/3 height in epithelium from basement membrane to luminal surface) or with sparsely and lightly Alcian blue/PAS-stained, small granules. Ciliated cells are recognized by their ciliated borders, lightly stained cytoplasm, and large round nuclei. Non-granulated secretory cells are columnar in shape and extend from the lumen to the basal lamina. The cytoplasm stains light pink color, and a few tiny PAS-positive and Alcian blue-negative granules are observed in the cytoplasm. Basal cells are small flattened cells with a large nucleus, located just above the basal lamina but not reaching the airway lumen.
Quantification of goblet cell production. Goblet cell production, was determined by the volume density of Alcian blue/PAS-stained mucosubstances on the mucosal surface epithelium using a semi-automatic imaging system described elsewhere (Weber et al. (1984) Science 224:294-297). We measured the Alcian blue/PAS-positive stained area and the total epithelial area and expressed the data as the percentage of the total area stained by Alcian blue-PAS. The analysis was performed with the public domain NIH Image program (developed at the U.S. National Institute of Health and available from the Internet by anonymous FTP from zippy.nimh.gov or on floppy disk from the National Technical Information Service, Springfield, Va., part number PB95-500195GEI).
Immunohistochemical localization of EGF-R in rat epithelium. The localization of EGF-R was examined using immunchistochemical staining with an antibody to EGF-R (Calbiochem, San Diego, Calif.) in frozen sections of rat trachea. After perfusion with 1% paraformaldehyde in PBS, tissues were placed in 4% paraformaldehyde in PBS for 1 h and then removed in 30% sucrose for cryoprotection overnight. Tracheas were embedded in O.C.T. compound (Sakura Finetek U.S.A., Inc., Torrance, Calif.) and frozen. Frozen sections (5 μm) were cut and placed on glass slides (Superfrost Plus, Fisher Scientific, Pittsburgh, Pa.). Immunostaining was performed similarly to the in vitro studies.

NCI-H292 cells [4] = experiment: Alcian blue/PAS staining of NCI-H292 cells for mucin glycoproteins; format: cell-based, human; conditions: TNFα 20 ng/ml; EGF, TGFα each 25 ng/ml
Protocol: as §1

Compound	MUC5AC gene expression (NCI-H292 cells [1])	EGF-R-specific tyrosine phosphorylation (EGFR)	maximum response in MUC5AC synthesis relative to the response to TGFα (NCI-H292 cells [2])	MUC5AC synthesis in NCI-H292 cells, stimulus alone (NCI-H292 cells [2]; H2O2 200 μM, cigarette smoke solution)	MUC5 gene expression on incubation with mediator (NCI-H292 cells [3])	epithelial production of mucous glycoconjugates (pathogen-free rats)	PAS-positive staining on incubation with mediator (NCI-H292 cells [4])
OO [H2O2, hydrogen peroxide]	up-regulated	induced EGF-R-specific tyrosine phosphorylation	half	caused MUC5AC synthesis			
EGF: recombinant human epidermal growth factor (Genzyme)					clearly expressed at 24 h	had no effect	increased PAS-positive staining
